# Results taken from paper doi:10.1101/2021.09.30.462449v1 (biorxiv, 2021).
# Assays:
# Assay in all cases: biochemical
# Conditions in all cases: read-out: % inhibition mean (Z'Lyte)
# AMPK A2/B1/G1 = AMPK A2/B1/G1 (Homo sapiens, UniProt P54646)
# EPHA4 = EPHA4 (Homo sapiens, UniProt P54764)
# EGFR (ErbB1) L861Q = EGFR (ErbB1) L861Q (Homo sapiens, UniProt P00533, L861Q)
# AMPK (A1/B2/G2) = AMPK (A1/B2/G2) (Homo sapiens, UniProt Q13131)
# SGKL (SGK3) = SGKL (SGK3) (Homo sapiens, UniProt Q96BR1)
# PDGFRA D842V = PDGFRA D842V (Homo sapiens, UniProt P16234, D842V)
# IKBKE (IKK epsilon) = IKBKE (IKK epsilon) (Homo sapiens, UniProt Q14164)
# GRK7 = GRK7 (Homo sapiens, UniProt Q8WTQ7)
# MST1R (RON) = MST1R (RON) (Homo sapiens, UniProt Q04912)
# STK23 (MSSK1) = STK23 (MSSK1) (Homo sapiens, UniProt Q9UPE1)
# FRAP1 (mTOR) = FRAP1 (mTOR) (Homo sapiens, UniProt P42345)
# TNK1 = TNK1 (Homo sapiens, UniProt Q13470)
# ABL1 Y253F = ABL1 Y253F (Homo sapiens, UniProt P00519, Y253F)
# PTK6 (Brk) = PTK6 (Brk) (Homo sapiens, UniProt Q13882)
# RPS6KB1 (p70S6K) = RPS6KB1 (p70S6K) (Homo sapiens, UniProt P23443)
# MAP2K6 (MKK6) = MAP2K6 (MKK6) (Homo sapiens, UniProt P52564)
# RET V804L = RET V804L (Homo sapiens, UniProt P07949, V804L)
# STK22D (TSSK1) = STK22D (TSSK1) (Homo sapiens, UniProt Q9BXA7)
# CSNK1A1L = CSNK1A1L (Homo sapiens, UniProt Q8N752)
# MAPKAPK5 (PRAK) = MAPKAPK5 (PRAK) (Homo sapiens, UniProt Q8IW41)
# FGFR2 N549H = FGFR2 N549H (Homo sapiens, UniProt P21802, N549H)
# RPS6KA5 (MSK1) = RPS6KA5 (MSK1) (Homo sapiens, UniProt O75582)
# SRC = SRC (Homo sapiens, UniProt P12931)
# RET A883F = RET A883F (Homo sapiens, UniProt P07949, A883F)
# PRKCB2 (PKC beta II) = PRKCB2 (PKC beta II) (Homo sapiens, UniProt P05771)
# ABL1 = ABL1 (Homo sapiens, UniProt P00519)
# PAK7 (KIAA1264) = PAK7 (KIAA1264) (Homo sapiens, UniProt Q9P286)
# JAK2 = JAK2 (Homo sapiens, UniProt O60674)
# Sequence of PRKCB2 (PKC beta II) (P05771 whole entry): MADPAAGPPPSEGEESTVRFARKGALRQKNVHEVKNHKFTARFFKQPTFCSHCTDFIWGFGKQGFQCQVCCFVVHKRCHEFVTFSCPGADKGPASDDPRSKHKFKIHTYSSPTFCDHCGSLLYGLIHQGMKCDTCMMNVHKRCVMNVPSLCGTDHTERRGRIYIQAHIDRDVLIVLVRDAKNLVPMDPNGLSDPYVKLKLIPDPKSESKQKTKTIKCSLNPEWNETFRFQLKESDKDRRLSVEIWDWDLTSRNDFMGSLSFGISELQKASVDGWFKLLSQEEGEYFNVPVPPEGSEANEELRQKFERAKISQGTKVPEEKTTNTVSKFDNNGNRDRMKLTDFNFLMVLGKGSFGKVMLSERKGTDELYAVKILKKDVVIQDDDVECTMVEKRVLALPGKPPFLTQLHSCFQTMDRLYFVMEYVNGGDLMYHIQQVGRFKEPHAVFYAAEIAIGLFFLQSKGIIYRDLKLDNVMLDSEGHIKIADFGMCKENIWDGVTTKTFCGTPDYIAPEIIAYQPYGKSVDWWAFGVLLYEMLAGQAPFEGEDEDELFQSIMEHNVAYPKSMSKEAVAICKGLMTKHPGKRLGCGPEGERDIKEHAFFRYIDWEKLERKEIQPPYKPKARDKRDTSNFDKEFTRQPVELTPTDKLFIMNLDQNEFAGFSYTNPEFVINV
# Sequence of AMPK (A1/B2/G2) (Q13131 whole entry): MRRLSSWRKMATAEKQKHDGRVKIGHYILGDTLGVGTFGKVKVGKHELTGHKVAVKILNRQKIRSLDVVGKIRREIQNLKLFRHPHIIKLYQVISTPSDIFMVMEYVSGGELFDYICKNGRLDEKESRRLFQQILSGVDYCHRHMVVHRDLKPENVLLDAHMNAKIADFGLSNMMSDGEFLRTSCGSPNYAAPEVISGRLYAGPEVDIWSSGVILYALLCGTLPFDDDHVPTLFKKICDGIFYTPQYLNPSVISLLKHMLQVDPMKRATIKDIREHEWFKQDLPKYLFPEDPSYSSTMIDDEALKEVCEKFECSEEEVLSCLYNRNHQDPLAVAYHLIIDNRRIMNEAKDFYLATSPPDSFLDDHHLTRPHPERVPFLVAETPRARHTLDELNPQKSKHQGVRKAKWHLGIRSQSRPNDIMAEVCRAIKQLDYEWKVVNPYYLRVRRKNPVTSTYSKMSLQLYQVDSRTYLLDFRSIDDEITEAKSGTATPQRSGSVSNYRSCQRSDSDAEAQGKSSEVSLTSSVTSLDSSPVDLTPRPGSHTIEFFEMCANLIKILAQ
# Sequence of AMPK (A1/B2/G2) (O43741 whole entry partner): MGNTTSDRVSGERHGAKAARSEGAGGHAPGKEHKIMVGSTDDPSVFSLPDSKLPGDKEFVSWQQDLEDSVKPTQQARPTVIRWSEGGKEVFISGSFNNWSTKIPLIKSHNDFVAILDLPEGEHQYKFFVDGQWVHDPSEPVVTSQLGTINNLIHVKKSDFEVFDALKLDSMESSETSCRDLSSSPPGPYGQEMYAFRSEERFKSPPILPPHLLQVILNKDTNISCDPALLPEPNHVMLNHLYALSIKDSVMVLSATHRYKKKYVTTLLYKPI
# Sequence of AMPK (A1/B2/G2) (Q9UGJ0 whole entry partner): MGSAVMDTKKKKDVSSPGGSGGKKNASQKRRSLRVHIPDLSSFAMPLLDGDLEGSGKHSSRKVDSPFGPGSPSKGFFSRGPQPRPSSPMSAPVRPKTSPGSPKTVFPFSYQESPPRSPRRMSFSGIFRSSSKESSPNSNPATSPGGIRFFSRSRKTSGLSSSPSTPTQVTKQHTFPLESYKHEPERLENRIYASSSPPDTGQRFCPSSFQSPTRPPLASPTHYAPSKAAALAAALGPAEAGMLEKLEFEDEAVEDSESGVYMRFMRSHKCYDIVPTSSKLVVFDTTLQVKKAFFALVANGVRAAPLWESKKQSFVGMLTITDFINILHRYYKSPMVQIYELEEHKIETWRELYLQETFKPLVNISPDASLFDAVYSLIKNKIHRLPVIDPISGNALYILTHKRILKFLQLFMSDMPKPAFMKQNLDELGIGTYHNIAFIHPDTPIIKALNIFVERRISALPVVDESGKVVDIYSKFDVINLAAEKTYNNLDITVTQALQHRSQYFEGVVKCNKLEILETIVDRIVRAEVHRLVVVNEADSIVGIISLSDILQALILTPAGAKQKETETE
# Sequence of GRK7 (Q8WTQ7 whole entry): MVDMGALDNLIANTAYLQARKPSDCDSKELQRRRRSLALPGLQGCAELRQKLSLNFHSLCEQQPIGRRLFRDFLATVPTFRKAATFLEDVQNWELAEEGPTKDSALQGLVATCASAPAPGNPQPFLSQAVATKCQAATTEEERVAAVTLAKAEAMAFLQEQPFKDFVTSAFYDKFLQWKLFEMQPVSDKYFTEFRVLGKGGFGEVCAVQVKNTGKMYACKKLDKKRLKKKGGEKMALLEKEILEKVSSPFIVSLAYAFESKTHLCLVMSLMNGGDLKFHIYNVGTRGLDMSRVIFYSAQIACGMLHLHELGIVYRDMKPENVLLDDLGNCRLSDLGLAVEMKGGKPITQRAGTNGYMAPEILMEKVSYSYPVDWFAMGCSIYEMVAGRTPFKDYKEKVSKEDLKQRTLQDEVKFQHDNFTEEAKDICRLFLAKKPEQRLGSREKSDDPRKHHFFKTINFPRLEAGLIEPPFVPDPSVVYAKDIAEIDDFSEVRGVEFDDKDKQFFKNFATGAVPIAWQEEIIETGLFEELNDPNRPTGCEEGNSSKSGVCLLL
# Sequence of MST1R (RON) (Q04912 whole entry): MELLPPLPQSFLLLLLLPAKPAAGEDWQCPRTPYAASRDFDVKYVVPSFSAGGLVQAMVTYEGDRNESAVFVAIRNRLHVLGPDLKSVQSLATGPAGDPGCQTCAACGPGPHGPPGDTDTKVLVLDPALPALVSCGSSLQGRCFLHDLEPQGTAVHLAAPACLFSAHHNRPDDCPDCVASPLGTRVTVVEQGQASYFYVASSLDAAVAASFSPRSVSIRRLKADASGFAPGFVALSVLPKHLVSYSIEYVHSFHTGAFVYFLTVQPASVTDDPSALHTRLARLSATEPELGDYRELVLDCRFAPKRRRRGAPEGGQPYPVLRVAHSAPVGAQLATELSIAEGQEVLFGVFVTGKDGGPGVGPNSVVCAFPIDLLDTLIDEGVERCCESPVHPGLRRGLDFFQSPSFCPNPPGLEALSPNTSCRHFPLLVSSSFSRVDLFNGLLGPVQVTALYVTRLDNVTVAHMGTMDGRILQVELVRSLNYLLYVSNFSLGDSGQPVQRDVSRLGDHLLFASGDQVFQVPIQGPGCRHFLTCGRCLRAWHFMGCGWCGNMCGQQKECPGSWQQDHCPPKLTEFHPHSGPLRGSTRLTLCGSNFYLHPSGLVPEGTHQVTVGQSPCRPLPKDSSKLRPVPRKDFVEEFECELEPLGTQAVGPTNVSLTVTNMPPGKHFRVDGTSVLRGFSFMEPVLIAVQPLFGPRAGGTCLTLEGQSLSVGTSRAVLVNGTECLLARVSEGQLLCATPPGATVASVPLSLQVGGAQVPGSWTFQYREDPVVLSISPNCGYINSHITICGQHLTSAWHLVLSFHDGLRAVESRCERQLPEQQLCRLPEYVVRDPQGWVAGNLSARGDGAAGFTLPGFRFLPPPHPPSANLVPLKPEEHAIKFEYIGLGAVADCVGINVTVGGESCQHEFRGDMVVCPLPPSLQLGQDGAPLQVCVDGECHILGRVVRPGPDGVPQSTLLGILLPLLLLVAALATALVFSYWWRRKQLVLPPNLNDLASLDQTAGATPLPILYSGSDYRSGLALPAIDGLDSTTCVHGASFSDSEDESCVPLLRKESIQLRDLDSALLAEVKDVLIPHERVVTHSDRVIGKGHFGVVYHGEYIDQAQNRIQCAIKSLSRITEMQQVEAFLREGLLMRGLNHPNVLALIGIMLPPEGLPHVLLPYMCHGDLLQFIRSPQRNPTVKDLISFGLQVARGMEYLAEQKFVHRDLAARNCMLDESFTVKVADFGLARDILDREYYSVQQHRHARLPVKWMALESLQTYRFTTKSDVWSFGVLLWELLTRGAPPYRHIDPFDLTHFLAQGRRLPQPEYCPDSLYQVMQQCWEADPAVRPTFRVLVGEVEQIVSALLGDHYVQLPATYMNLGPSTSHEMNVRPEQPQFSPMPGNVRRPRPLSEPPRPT
# Sequence of MAP2K6 (MKK6) (P52564 whole entry): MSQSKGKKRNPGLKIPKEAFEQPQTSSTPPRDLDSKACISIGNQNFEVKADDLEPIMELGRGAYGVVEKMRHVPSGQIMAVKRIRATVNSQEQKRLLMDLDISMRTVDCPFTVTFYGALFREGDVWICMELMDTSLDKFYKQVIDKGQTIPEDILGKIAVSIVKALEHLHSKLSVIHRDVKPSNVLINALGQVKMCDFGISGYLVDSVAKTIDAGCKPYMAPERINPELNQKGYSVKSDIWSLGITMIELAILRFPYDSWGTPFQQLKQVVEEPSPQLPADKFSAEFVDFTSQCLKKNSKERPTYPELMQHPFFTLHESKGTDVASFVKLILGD
# Sequence of MAPKAPK5 (PRAK) (Q8IW41 whole entry): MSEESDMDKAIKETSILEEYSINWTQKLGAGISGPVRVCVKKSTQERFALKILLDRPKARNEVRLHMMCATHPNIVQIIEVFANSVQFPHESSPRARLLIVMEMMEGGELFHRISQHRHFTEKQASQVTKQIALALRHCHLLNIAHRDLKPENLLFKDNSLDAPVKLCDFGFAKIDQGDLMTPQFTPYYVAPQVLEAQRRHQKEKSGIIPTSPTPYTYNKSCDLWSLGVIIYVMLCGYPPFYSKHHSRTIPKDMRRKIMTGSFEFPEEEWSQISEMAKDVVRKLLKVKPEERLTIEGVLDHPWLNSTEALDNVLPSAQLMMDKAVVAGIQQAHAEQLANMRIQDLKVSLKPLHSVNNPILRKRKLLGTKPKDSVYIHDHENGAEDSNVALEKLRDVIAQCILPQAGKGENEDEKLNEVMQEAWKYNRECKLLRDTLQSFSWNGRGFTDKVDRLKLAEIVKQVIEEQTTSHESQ
structure (smiles),measurement,setting,value
"COc1ccc2nc3cc(Cl)ccc3c(Nc3cc(CN4CCCC4)c(O)c(CN4CCCC4)c3)c2n1 [Pyronaridine, 4-[(7-Chloro-2-methoxybenzo[b][1,5]naphthyridin-10-yl)amino]-2,6-bis(1-pyrrolidinylmethyl)phenol phosphate (1:4)]",inhibition at 1 µM,AMPK A2/B1/G1,2%
same,inhibition at 1 µM,EPHA4,-2%
same,inhibition at 1 µM,EGFR (ErbB1) L861Q,-4%
same,inhibition at 1 µM,AMPK (A1/B2/G2),-2%
same,inhibition at 1 µM,SGKL (SGK3),0%
same,inhibition at 1 µM,PDGFRA D842V,-1%
same,inhibition at 1 µM,IKBKE (IKK epsilon),2%
same,inhibition at 1 µM,GRK7,4%
same,inhibition at 1 µM,MST1R (RON),2%
same,inhibition at 1 µM,STK23 (MSSK1),-2%
same,inhibition at 1 µM,FRAP1 (mTOR),1%
same,inhibition at 1 µM,TNK1,-3%
same,inhibition at 1 µM,ABL1 Y253F,-1%
same,inhibition at 1 µM,PTK6 (Brk),-4%
same,inhibition at 1 µM,RPS6KB1 (p70S6K),3%
same,inhibition at 1 µM,MAP2K6 (MKK6),3%
same,inhibition at 1 µM,RET V804L,1%
same,inhibition at 1 µM,STK22D (TSSK1),6%
same,inhibition at 1 µM,CSNK1A1L,3%
same,inhibition at 1 µM,MAPKAPK5 (PRAK),3%
same,inhibition at 1 µM,FGFR2 N549H,2%
same,inhibition at 1 µM,RPS6KA5 (MSK1),2%
same,inhibition at 1 µM,SRC,14%
same,inhibition at 1 µM,RET A883F,-1%
same,inhibition at 1 µM,PRKCB2 (PKC beta II),15%
same,inhibition at 1 µM,ABL1,2%
same,inhibition at 1 µM,PAK7 (KIAA1264),-5%
same,inhibition at 1 µM,JAK2,4%
